This note sets out measurements from patent publication US20050014690A1, “Styryl acrylonitrile compounds and their use to promote myelopoiesis” (priority 2001, published 2005).

One data set concerns mice. The experiment in a line: Granulocytes in the spleen of treated mice. Format: in vivo.
The subject of data set [1] is normal bone marrow mononuclear cells. The data set can be described thus: Long-term culture-initiating cell (LTC-IC) assay on stroma after pre-incubation. The data set is classed as cell-based, human. Conditions: for myeloproliferation in long-term cultures: pre-incubated with 50 uM for 5 hours, FIG. 11. The source says: The long-term BM culture system provides the means to investigate the proliferation and differentiation properties of primitive hematopoietic cells. To assess the long-term effects of CR4 on early progenitor cells the long-term culture-initiating cell (LTC-IC) assay was set up utilizing stromal microenvironment. Briefly, to obtain stromal cells bone marrow mononuclear cells were suspended in long-term culture (LTC) media (MyeloCult Stem Cell Technologies Inc.) supplemented with 10^−6 mol/L hydrocortisone sodium succinate (HSS; Sigma Aldrich Canada Ltd., Mississauga, Ont.,Canada). Approximately 1×10^7 cells were plated into 25 cm^2 tissue culture flasks (Becton Dickinson Labware, Franklin Lakes, N.J., USA) and incubated for 3 days at […] in a humidified atmosphere with 5% CO2 followed by incubation at 33° C. Cultures were re-fed weekly by replacing half of the medium. Following stromal confluency (3-6 weeks) cells were trypsinized and irradiated (1,500 cGy) using a Cs source. Stromal cells were again replated in LTC media at a concentration of 0.5-1.0×10^6 cells per 35 mm culture dishes (Nunc-Gibco BRL, Gaithersburg, Md.). Subcultured stroma was incubated for 2-3 days (at greater than 70% confluency) prior to co-culturing with fresh non-adherent overlay of hematopoietic cells. Normal bone marrow mononuclear cells, purified by centrifugation on Percoll, at a concentration of 1×10^6 cells/ml were pre-incubated with 50 uM CR4 or the drug diluent alone for a period of 5 hours at 37° C. in media. Cells were then washed twice to remove the compound and plated at 2×10^5 cells/ml for the short-term CFU-GEMM clonogenic assay (as previously described) while the remainder of the non-adherent cells were co-cultured with normal stroma (as described above) for long-term cultures. Long-term cultures were set up with two unrelated normal bone marrow samples (NBM1 and NBM2). Half of the non-adherent mononuclear cells were removed weekly from the stromal co-cultures and plated for colony-forming cells (CFU-GM) in the CFU-GEMM assay.

Regarding `N#C/C(=C\C=C\c1ccc(O)c(O)c1)C(=O)NCc1ccccc1` [CR4, (E,E)-2-(Benzylaminocarbonyl)-3-(3,4-dihydroxystyryl)acrylonitrile], in the data set with mice (daily injection, SCI mouse model), the normal splenic granulocytes entry was “tremendous increase”. The “non-specific damage to the animal” value in the data set with mice (doses required to promote myelopoiesis, one month of continual administration) is “did not result in detectable non-specific damage”. Further, in the data set on mice (mice, one month, subcutaneous osmotic pump, theoretical 200 μg/kg/hr, FIG. 10), the “granulocytes in the spleen” value is on record as “Increase in granulocytes”. Also, the “number of CFU-GM in long-term cultures” value in data set [1] (50 μM for 5 hours) is recorded as “significant increase”. For the same compound, the “myeloproliferation in long-term cultures” value in data set [1] (NBM1) and in data set [1] (NBM2) was “significant increase” each time.
